Source: patent US8470820B2, “Nitrogen-containing heteroaryl derivatives” (Hoffman-La Roche Inc., priority 2010, dated 2013)

Key:
[1] = biological target: human PDE10A (Homo sapiens (Human), UniProt Q9Y233); test: human PDE10A full length Scintillation Proximity Assay (SPA); format: biochemical; settings: 50 nM cGMP and 50 nM [3H]-cGMP, 20 minutes at room temperature, read-out: PDE10A inhibition IC50
Experimental: The following test was carried out in order to determine the activity of the compounds of the present invention. PDE10 activity of the compounds of the present invention was determined using a Scintillation Proximity Assay (SPA)-based method similar to the one previously described (Fawcett, L. et al., Proc Natl Acad Sci USA (2000) 97(7):3702-3707).
The human PDE10A full length assay was performed in 96-well micro titer plates. The reaction mixture of 50 μl contained 20 mM HEPES pH=7.5/10 mM MgCl2/0.05 mg/ml BSA (Sigma cat. # A-7906), 50 nM cGMP (Sigma, cat. # G6129) and 50 nM [^3H]-cGMP (GE Healthcare, cat. # TRK392 S.A. 13.2Ci/mmol), 3.75 ng/well PDE10A enzyme (Enzo Life Science, Lausen, Switzerland cat # SE-534) with or without a specific test compound. A range of concentrations of the potential inhibitor was used to generate data for calculating the concentration of inhibitor resulting in 50% of the effect (e.g. IC50, the concentration of the competitor inhibiting PDE10A activity by 50%). Non-specific activity was tested without the enzyme. The reaction was initiated by the addition of the substrate solution (cGMP and [^3H]-cGMP) and allowed to progress for 20 minutes at room temperature. The reaction was terminated by adding 25 μA of YSi-SPA scintillation beads (GE Healthcare, cat. # RPNQ0150) in 18 mM zinc sulphate solution (stop reagent). After 1 h under shaking, the plate was centrifuged one minute at 170 g to allow beads to settle. Afterwards, radioactive counts were measured on a Perkin Elmer TopCount Scintillation plate reader.

[2] = test system: rats; settings: sub-chronic treatment with PCP (NMDA receptor hypofunction paradigm); cited from earlier work

Sequence of human PDE10A (Q9Y233 other isoform, or with tags, fused parts or gaps): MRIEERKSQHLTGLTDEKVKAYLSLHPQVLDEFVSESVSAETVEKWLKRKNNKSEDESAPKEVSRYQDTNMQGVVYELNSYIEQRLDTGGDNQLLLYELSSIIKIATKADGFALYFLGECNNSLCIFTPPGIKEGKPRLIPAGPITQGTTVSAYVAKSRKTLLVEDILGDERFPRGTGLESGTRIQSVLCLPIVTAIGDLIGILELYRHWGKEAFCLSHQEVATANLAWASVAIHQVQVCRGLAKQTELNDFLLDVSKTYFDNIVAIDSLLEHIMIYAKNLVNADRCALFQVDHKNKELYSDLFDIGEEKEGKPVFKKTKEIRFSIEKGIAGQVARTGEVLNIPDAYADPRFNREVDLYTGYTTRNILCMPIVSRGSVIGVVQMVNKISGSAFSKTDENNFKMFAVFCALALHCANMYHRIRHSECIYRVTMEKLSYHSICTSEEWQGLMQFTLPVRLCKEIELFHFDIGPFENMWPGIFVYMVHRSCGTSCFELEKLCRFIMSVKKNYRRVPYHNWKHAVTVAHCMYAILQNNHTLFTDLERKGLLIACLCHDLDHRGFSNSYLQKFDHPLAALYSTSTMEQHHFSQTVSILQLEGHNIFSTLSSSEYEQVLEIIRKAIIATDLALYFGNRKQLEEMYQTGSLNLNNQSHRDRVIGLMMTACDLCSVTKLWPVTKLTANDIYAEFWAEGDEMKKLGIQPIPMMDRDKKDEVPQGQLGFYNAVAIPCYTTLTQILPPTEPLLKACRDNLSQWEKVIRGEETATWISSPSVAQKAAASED

SMILES	IC50 [1] [nM]	effect on deficits in extra-dimensional shift learning [2]
O=C(Nc1cc(-c2ccccc2)no1)c1nc(C2CC2)ccc1Nc1cncnc1 [Example 46, 6-Cyclopropyl-3-(pyrimidin-5-ylamino)-pyridine-2-carboxylic acid (3-phenyl-isoxazol-5-yl)-amide]	612	–
O=C(Nc1cc(-c2ccccc2)on1)c1nc(C2CC2)ccc1Nc1cncnc1 [Example 47, 6-Cyclopropyl-3-(pyrimidin-5-ylamino)-pyridine-2-carboxylic acid (5-phenyl-isoxazol-3-yl)-amide]	1450	–
O=C(Nc1nnc(-c2ccccc2)s1)c1nc(C2CC2)ccc1Nc1cncnc1 [Example 48, 6-Cyclopropyl-3-(pyrimidin-5-ylamino)-pyridine-2-carboxylic acid (5-phenyl-[1,3,4]thiadiazol-2-yl)-amide]	435	–
O=C(Nc1nnc(-c2cnccn2)s1)c1nc(C2CC2)ccc1Nc1cncnc1 [Example 49, 6-Cyclopropyl-3-(pyrimidin-5-ylamino)-pyridine-2-carboxylic acid (5-pyrazin-2-yl-[1,3,4]thiadiazol-2-yl)-amide]	744	–
O=C(Nc1ccc(-c2ccccn2)s1)c1nc(C2CC2)ccc1Nc1cncnc1 [Example 50, 6-Cyclopropyl-3-(pyrimidin-5-ylamino)-pyridine-2-carboxylic acid (5-pyridin-2-yl-thiophen-2-yl)-amide]	1	–
O=C(Nc1cc(-c2ccccn2)no1)c1nc(C2CC2)ccc1Nc1cncnc1 [Example 51, 6-Cyclopropyl-3-(pyrimidin-5-ylamino)-pyridine-2-carboxylic acid (3-pyridin-2-yl-isoxazol-5-yl)-amide]	4	–
O=C(Nc1cn(-c2ccccn2)cn1)c1nc(C2CC2)ccc1Nc1cncnc1 [Example 52, 6-Cyclopropyl-3-(pyrimidin-5-ylamino)-pyridine-2-carboxylic acid (1-pyridin-2-yl-1H-imidazol-4-yl)-amide]	33	–
CC(C)c1ncc(Nc2cncnc2)c(C(=O)Nc2cc(-c3ccccn3)nn2C)n1 [Example 53, 2-Isopropyl-5-(pyrimidin-5-ylamino)-pyrimidine-4-carboxylic acid (2-methyl-5-pyridin-2-yl-2H-pyrazol-3-yl)-amide]	20	–
Cn1nc(-c2ccccn2)cc1NC(=O)c1nc(C2CC2)ncc1Nc1cncnc1 [Example 54, 2-Cyclopropyl-5-(pyrimidin-5-ylamino)-pyrimidine-4-carboxylic acid (2-methyl-5-pyridin-2-yl-2H-pyrazol-3-yl)-amide]	87	–
Cn1nc(-c2ccccn2)cc1NC(=O)c1nc(C(C)(C)C)ncc1Nc1cncnc1 [Example 55, 2-tert-Butyl-5-(pyrimidin-5-ylamino)-pyrimidine-4-carboxylic acid (2-methyl-5-pyridin-2-yl-2H-pyrazol-3-yl)-amide]	4	–
O=C(Nc1cc(-c2ccc(Cl)cc2)no1)c1nc(C2CC2)ccc1Nc1cncnc1 [Example 56, 6-Cyclopropyl-3-(pyrimidin-5-ylamino)-pyridine-2-carboxylic acid [3-(4-chloro-phenyl)-isoxazol-5-yl]-amide]	1450	–
O=C(Nc1cc(-c2ccc(Br)cc2)no1)c1nc(C2CC2)ccc1Nc1cncnc1 [Example 57, 6-Cyclopropyl-3-(pyrimidin-5-ylamino)-pyridine-2-carboxylic acid [3-(4-bromo-phenyl)-isoxazol-5-yl]-amide]	781	–
O=C(Nc1cc(-c2ccc(F)cc2)no1)c1nc(C2CC2)ccc1Nc1cncnc1 [Example 58, 6-Cyclopropyl-3-(pyrimidin-5-ylamino)-pyridine-2-carboxylic acid [3-(4-fluoro-phenyl)-isoxazol-5-yl]-amide]	2450	–
COc1ccc(Cc2nccc3cc(OC)c(OC)cc23)cc1OC [papaverine, Papaverine]	–	attenuate the deficits in the extra-dimensional shift learning

Further lines, with some results ahead:

IC50 [1] [nM]	SMILES	effect on deficits in extra-dimensional shift learning [2]
7	COCc1ccc(Nc2cncnc2)c(C(=O)Nc2cc(-c3ccccn3)nn2C)n1 [Example 59, 6-Methoxymethyl-3-(pyrimidin-5-ylamino)-pyridine-2-carboxylic acid (2-methyl-5-pyridin-2-yl-2H-pyrazol-3-yl)-amide]	–
6	Cn1nc(-c2ccccn2)cc1NC(=O)c1nc(C2CCCCC2)ncc1Nc1cncnc1 [Example 60, 2-Cyclohexyl-5-(pyrimidin-5-ylamino)-pyrimidine-4-carboxylic acid (2-methyl-5-pyridin-2-yl-2H-pyrazol-3-yl)-amide]	–
28	CC(C)Cc1ncc(Nc2cncnc2)c(C(=O)Nc2cc(-c3ccccn3)nn2C)n1 [Example 61, 2-Isobutyl-5-(pyrimidin-5-ylamino)-pyrimidine-4-carboxylic acid (2-methyl-5-pyridin-2-yl-2H-pyrazol-3-yl)-amide]	–
2	O=C(Nc1cnc(-c2ccccn2)s1)c1nc(C2CC2)ccc1Nc1cncnc1 [Example 62, 6-Cyclopropyl-3-(pyrimidin-5-ylamino)-pyridine-2-carboxylic acid (2-pyridin-2-yl-thiazol-5-yl)-amide]	–
327	Cn1nc(NC(=O)c2nc(C3CC3)ccc2Nc2cncnc2)cc1-c1ccccn1 [Example 63, 6-Cyclopropyl-3-(pyrimidin-5-ylamino)-pyridine-2-carboxylic acid (1-methyl-5-pyridin-2-yl-1H-pyrazol-3-yl)-amide]	–
2040	O=C(Nc1nnc(-c2ccccn2)o1)c1nc(C2CC2)ccc1Nc1cncnc1 [Example 64, 6-Cyclopropyl-3-(pyrimidin-5-ylamino)-pyridine-2-carboxylic acid (5-pyridin-2-yl-[1,3,4]oxadiazol-2-yl)-amide]	–
55	O=C(Nc1cnn(-c2ccccn2)c1)c1nc(C2CC2)ccc1Nc1cncnc1 [Example 65, 6-Cyclopropyl-3-(pyrimidin-5-ylamino)-pyridine-2-carboxylic acid (1-pyridin-2-yl-1H-pyrazol-4-yl)-amide]	–
187	O=C(Nc1cn(-c2ccccn2)cn1)c1nc(C2CC2)cnc1Nc1cncnc1 [Example 66, 6-Cyclopropyl-3-(pyrimidin-5-ylamino)-pyrazine-2-carboxylic acid (1-pyridin-2-yl-1H-imidazol-4-yl)-amide]	–
